Data taken from patent publication US9179668B2, “Use of glycerol ethers as activators of the biological effects of a herbicide, fungicide or insecticide substance” (FONDS DE DEVELOPPEMENT DES FILIERES DES OLEAGINEUX ET …, priority 2009, dated 2015).

Columns and labels:
[1] = test system: herbaceous plants; test: Spraying of herbicide solutions on 50×50 cm plots of land with herbaceous plants; deterioration of the vegetation observed; type: in vivo
Method: The following tests were carried out on plots of land of 50×50 cm on which herbaceous plants occur. Each of the solutions tested is sprayed over a plot which is assigned to it.
The time necessary for the complete destruction of the vegetation was compared, on similar plots planted with herbaceous plants, with a herbicide alone, on the one hand, and the same herbicide to which has been added a glycerol ether: 3-methyloxypropane-1,2-diol, on the other hand.
A solution comprising 6 g/l of glyphosate (in the acid form) was sprayed over plot 1 in a proportion of 36 grams to the m^2.
A solution comprising […] and 0.9 g/l of 3-methyl-oxypropane-1,2-diol was sprayed over plot 2 in a proportion of 36 grams to the m^2.
The following sprayings were carried out on 4 plots covered with herbaceous plants: • Plot 1: glyphosate at 6 g/l (36 g of the solution to the m^2) • Plot 2: glyphosate at 4.5 g/l (36 g of the solution to the m^2) • Plot 3: a solution of glyphosate at 1.5 g/l 3-pentyloxypropane-1,2-diol at 0.9 g/l, in a proportion of 36 g of the solution to the m^2. • Plot 4: a solution of glyphosate at […] 3-pentyloxypropane-1,2-diol at 0.9 g/l, in a proportion of 36 g of the solution to the m^2.

[2] = test system: Lucilia caesar; test: Spraying of insecticide solution on 30 flies in a cage; degree of mortality; type: in vivo; details: 1.8 g of solution; for degree of mortality: diflubenzuron 39.0 mg/l + glycerol ether 47.0 mg/l (cage 2)
Method: 30 flies of the species Lucilia caesar were introduced into each of the cages made with a cubic frame from lengths of wood and mosquito screens. One of the faces was pierced with a hole through which a sprayer for the test solution is introduced: • in cage 1, 1.8 g of a solution comprising 39.0 mg/l of diflubenzuron were sprayed • in cage 2, 1.8 g of a solution comprising 39.0 mg/l of diflubenzuron and 47.0 mg/l of 3-isopropyloxypropane-1,2-diol were sprayed.

[3] = test system: Candida albicans; test: Candida albicans on agar in a Petri dish with impregnated blotting paper disks; inhibition regions observed; type: cell-based
Source text: In the following examples, the Candida albicans test strain used is sold under the reference ATCC 10231, Collection Institut Pasteur.
A Candida albicans strain was inoculated on agar in a Petri dish. Disks of blotting paper impregnated with the following solutions were subsequently deposited at its surface:
• disk 1 is impregnated with a solution comprising […] • disk 2 is impregnated with a solution comprising 0.5 g/l of mancozeb • disk 3 is impregnated with a solution comprising 0.2 g/l of mancozeb • disk 4 is impregnated with a solution comprising 0.2 g/l of mancozeb and 0.1 g/l of 3-butyloxypropane-1,2-diol.

[4] = test system: Sitobion avenae; test: Spraying of insecticide solution on 25 aphids in a Petri dish; degree of mortality; type: in vivo; details: read-out: degree of mortality
Method: The aphids of the species Sitobion avenae used in the following examples were supplied by the Université de Picardie d'Amiens [University of Picardy of Amiens], laboratoire de biologie des plantes et contrôle des insectes ravageurs [Plant Biology and Insect Pest Control Laboratory], EA3900, 33, rue Saint Leu, Amiens 80000.
25 aphids of the species Sitobion avenae were introduced into a Petri dish into which the test solution was sprayed: • in dish 1, 1.8 g of a solution comprising 39.0 mg/l of diflubenzuron were sprayed; • in dish 2, 1.8 g of a solution comprising 39.0 mg/l of diflubezuron and 47.0 mg/l of 3-isopropyloxypropane-1,2-diol were sprayed.

[5] = glyphosate 6 g/l + glycerol ether 0.9 g/l, 36 g of solution per m^2 (plot 2)
[6] = glyphosate 1.5 g/l + glycerol ether 0.9 g/l, 36 g of solution per m^2
[7] = glyphosate 3 g/l + glycerol ether 0.9 g/l, 36 g of solution per m^2
[8] = glyphosate 6 g/l alone, 36 g of solution per m^2 (plot 1)

Compound: CCOCC(O)COCC [1,3-diethyloxypropan-2-ol]
- time after which deterioration began [1, 5]: 4 days
- time after which deterioration was complete [1, 5]: 13 days

Compound: COCC(O)COC [1,3-dimethyloxypropan-2-ol]
- time after which deterioration began [1, 5]: 4 days
- time after which deterioration was complete [1, 5]: 15 days

Compound: CCCCC(CC)COCC(O)CO (centres unmarked) [3-(2-ethylhexyloxy)propane-1,2-diol]
- degree of mortality [2]: 56%
- inhibition region of growth around the disk ([3]; mancozeb 0.2 g/l + glycerol ether 0.05 g/l (disk 4)): circular regions of inhibition of the growth
- state of plot after 30 days [1, 6]: unaffected
- state of plot after 30 days [1, 7]: completely deteriorated
- time after which deterioration began [1, 5]: 3 days
- time after which deterioration was complete [1, 5]: 11 days

Compound: CCCCOCC(O)CO (centres unmarked) [3-butyloxypropane-1,2-diol]
- inhibition region of growth around the disk ([3]; mancozeb 0.2 g/l + glycerol ether 0.1 g/l (disk 4)): circular regions of inhibition of the growth
- state of plot after 30 days [1, 6]: unaffected
- state of plot after 30 days [1, 7]: completely deteriorated
- time after which deterioration began [1, 5]: 3 days
- time after which deterioration was complete [1, 5]: 10 days

Compound: CCCCCCCCCCOCC(O)CO (centres unmarked) [3-decyloxypropane-1,2-diol]
- time after which deterioration began [1, 5]: 4 days
- time after which deterioration was complete [1, 5]: 11 days

Compound: CCOCC(O)CO (centres unmarked) [3-ethyloxypropane-1,2-diol]
- time after which deterioration began [1, 5]: 3 days
- time after which deterioration was complete [1, 5]: 11 days

Compound: CCCCCCOCC(O)CO (centres unmarked) [3-hexyloxypropane-1,2-diol]
- state of plot after 30 days [1, 6]: unaffected
- state of plot after 30 days [1, 7]: completely deteriorated
- time after which deterioration began [1, 5]: 3 days
- time after which deterioration was complete [1, 5]: 10 days

Compound: CC(C)CCCCCCOCC(O)CO (centres unmarked) [3-isononyloxypropane-1,2-diol]
- state of plot after 30 days [1, 6]: unaffected
- state of plot after 30 days [1, 7]: completely deteriorated

Compound: CC(C)OCC(O)CO (centres unmarked) [3-isopropyloxypropane-1,2-diol]
- degree of mortality [2]: 64%
- state of plot after 30 days [1, 6]: unaffected
- state of plot after 30 days [1, 7]: completely deteriorated
- time after which deterioration began [1, 5]: 3 days
- time after which deterioration was complete [1, 5]: 12 days

Compound: COCC(O)CO (centres unmarked) [3-methyloxypropane-1,2-diol]
- time after which deterioration began [1, 5]: 4 days
- time after which deterioration was complete [1, 5]: 13 days

Compound: CCCCCOCC(O)CO (centres unmarked) [3-pentyloxypropane-1,2-diol]
- inhibition region of growth around the disk ([3]; mancozeb 0.2 g/l + glycerol ether 0.25 g/l (disk 4)): circular regions of inhibition of the growth
- state of plot after 30 days ([1]; glyphosate 0.75 + glycerol ether 0.9 g/l, 36 g of solution per m^2): unaffected
- state of plot after 30 days [1, 6]: completely deteriorated
- time after which deterioration began [1, 5]: 3 days
- time after which deterioration was complete [1, 5]: 10 days

Compound: O=C(NC(=O)c1c(F)cccc1F)Nc1ccc(Cl)cc1 [diflubenzuron, reference compound]
- mortality at 39 µg/mL ([2]; Lucilia caesar, diflubenzuron 39.0 mg/l alone (cage 1)): 29%
- mortality at 39 µg/mL [4]: 21%

Compound: O=C(O)CNCP(=O)(O)O [glyphosate, reference compound]
- state of plot after 30 days ([1]; glyphosate 4.5 g/l alone, 36 g of solution per m^2 (plot 2)): unaffected
- state of plot after 30 days [1, 8]: completely deteriorated
- time after which deterioration began [1, 8]: 8 days
- time after which deterioration was complete [1, 8]: 18 days

Compound: Cc1nc(N(C)C)nc(OC(=O)N(C)C)c1C [pirimicarb]
- mortality at 78.1 µg/mL [4]: 16%

Compound: mancozeb [reference compound]
- inhibition region of growth around the disk ([3]; mancozeb 0.2 g/l alone (disk 3)): absence was observed of an inhibition region
- inhibition region of growth around the disk ([3]; mancozeb 0.5 g/l alone (disk 2)): absence was observed of an inhibition region
- inhibition region of growth around the disk ([3]; mancozeb 0.8 g/l alone (disk 1)): circular regions of inhibition of the growth
